In test [1] the test system is Jurkat NFκB-luciferase cells. As to the kind of experiment: Jurkat NFκB-Luciferase Assay. It counts as cell-based. Particulars: Homo sapiens; Jurkat NFκB-luciferase cells activated with anti-CD3 antibody (OKT3), 2.5 hrs at 37° C.; geometric mean; read-out: DGK NFKb Luciferase EC50. The gist of the method: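 Jurkat NFκB-luciferase reporter cells stimulated on plate-bound anti-CD3 (5 ug/ml coating) with compound, 2.5 hrs at 37° C then 30 min at 25° C; luminescence read with One-Glo Ex. Normalized to DMSO (basal) and 1 micromolar compound (maximum) controls; EC50 from four-parameter fit, geometric mean across experiments.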

In another test the target is human DGKα (Homo sapiens (Human), UniProt P23743). In words: DGKα Biochemical Activity Assay (ADP-Glo). Particulars: recombinant DGKα 1 nM, 100 μM ATP, 18:1 DAG/POPS/octylglucoside micelles, 1 hour at 25° C.; geometric mean; read-out: HTBS DGKa 1X ATP KM IC50. A digest of the protocol:
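Recombinant DGKα (1 nM final) was preincubated with compound for 15 min, then reacted for 1 h at 25 °C with 100 μM ATP and octylglucoside micelles of 0.85 mM 18:1 DAG and 6.75 mM POPS in pH 7.2 MOPS with 5 mM MgCl2. ADP formed was read by ADP-Glo luminescence. IC50 came from four-parameter fits normalized to DMSO and 50 μM CU3, and values were geometric means.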
In general terms: ADP-Glo turns the ADP formed in a reaction into a luminescent signal.

human DGKα, sequence (P23743 whole entry): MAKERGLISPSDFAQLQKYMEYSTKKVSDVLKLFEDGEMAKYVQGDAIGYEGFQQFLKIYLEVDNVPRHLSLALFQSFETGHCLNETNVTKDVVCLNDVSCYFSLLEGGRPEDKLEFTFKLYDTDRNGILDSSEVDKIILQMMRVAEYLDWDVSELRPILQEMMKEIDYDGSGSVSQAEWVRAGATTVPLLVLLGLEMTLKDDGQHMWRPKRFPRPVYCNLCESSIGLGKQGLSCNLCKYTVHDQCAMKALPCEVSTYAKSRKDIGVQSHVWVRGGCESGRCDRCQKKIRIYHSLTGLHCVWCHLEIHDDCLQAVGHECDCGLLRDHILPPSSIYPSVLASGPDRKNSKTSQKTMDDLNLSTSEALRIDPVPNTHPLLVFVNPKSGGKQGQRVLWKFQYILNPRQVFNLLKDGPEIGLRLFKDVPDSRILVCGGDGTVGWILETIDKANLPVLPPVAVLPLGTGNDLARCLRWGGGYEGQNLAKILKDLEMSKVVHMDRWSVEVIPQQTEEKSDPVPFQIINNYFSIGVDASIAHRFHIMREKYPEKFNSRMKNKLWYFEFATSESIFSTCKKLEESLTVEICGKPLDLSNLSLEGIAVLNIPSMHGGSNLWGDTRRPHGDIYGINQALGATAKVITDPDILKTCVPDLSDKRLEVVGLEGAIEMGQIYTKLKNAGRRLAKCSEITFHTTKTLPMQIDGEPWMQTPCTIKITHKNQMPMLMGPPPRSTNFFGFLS

As for `CN(c1cc(F)cc(C#CC2(C(F)(F)F)CC2)c1)c1nc2nncn2c2cncc(F)c12` [Example 93, 10-fluoro-N-[3-fluoro-5-[2-[1-(trifluoromethyl)cyclopropyl]ethynyl]phenyl]-N-methyl-2,4,5,7,12-pentazatricyclo[7.4.0.02,6]trideca-1(13),3,5,7,9,11-hexaen-8-amine], the EC50 – broadly, the concentration giving half of the maximal effect – in test [1] is 0.763 nM. Besides, the IC50 – broadly, the point on the concentration scale where inhibition reaches its midpoint – on human DGKα was 7.17 nM.
Consider `Cc1nnc2nc(N3CCCc4c3ccnc4C#CC(C)(C)C#N)c3c(F)cncc3n12` [Example 31, 4-(1-(6-fluoro-1-methylpyrido[4,3-e][1,2,4]triazolo[4,3-a]pyrimidin-5-yl)-1,2,3,4-tetrahydro-1,6-naphthyridin-5-yl)-2,2-dimethylbut-3-ynenitrile], for which the EC50 in test [1] was 81.1 nM. Moreover, the IC50 at human DGKα was determined as 72.3 nM.
On to `Cc1nnc2nc(N3CCCc4c(C#CC(C)(C)C(F)(F)F)cncc43)c3c(F)cncc3n12` [Example 36, 6-fluoro-1-methyl-5-(5-(4,4,4-trifluoro-3,3-dimethylbut-1-yn-1-yl)-3,4-dihydro-1,7-naphthyridin-1(2H)-yl)pyrido[4,3-e][1,2,4]triazolo[4,3-a]pyrimidine], for which the EC50 in test [1] turned out to be 8.86 nM. Further, the IC50 at human DGKα was found to be 40.4 nM.
The corresponding values for `Cc1nnc2nc(N3CCCc4c3ccnc4C#CC3(C)CC3)c3c(F)cncc3n12` [Example 32, 6-fluoro-1-methyl-5-(5-((1-methylcyclopropyl)ethynyl)-3,4-dihydro-1,6-naphthyridin-1(2H)-yl)pyrido[4,3-e][1,2,4]triazolo[4,3-a]pyrimidine] are 8.79 nM and 12.6 nM.
The corresponding values for `COc1ccc2c(N(C)c3cccc(C#CC(C)(C)O)c3)nc3nncn3c2n1` [Example 114, 4-(3-((2-methoxypyrido[3,2-e][1,2,4]triazolo[4,3-a]pyrimidin-5-yl)(methyl)amino)phenyl)-2-methylbut-3-yn-2-ol] are 27 nM and 75.4 nM.
`Cc1nnc2nc(N3CCCc4c(C#CC(C)(C)O)cccc43)c3cc(F)cnc3n12` [Example 98, 4-(1-(3-fluoro-9-methylpyrido[3,2-e][1,2,4]triazolo[4,3-a]pyrimidin-5-yl)-1,2,3,4-tetrahydroquinolin-5-yl)-2-methylbut-3-yn-2-ol]: the EC50 in test [1] was determined as 26.2 nM. Moreover, the IC50 on human DGKα was 49 nM.
The corresponding values for `CN(c1cccc(-c2ccc(N3CCCS3(=O)=O)cc2)c1)c1nc2nncn2c2cnccc12` [Example 59, N-[3-[4-(1,1-dioxo-1,2-thiazolidin-2-yl)phenyl]phenyl]-N-methyl-2,4,5,7,12-pentazatricyclo[7.4.0.02,6]trideca-1(13),3,5,7,9,11-hexaen-8-amine] are 121 nM and 45.2 nM.
Consider `Cc1nnc2nc(N3CCCc4c(C#Cc5cnn(C)c5)cccc43)c3ccc(C(F)(F)F)nc3n12` [Example 139, 9-methyl-5-(5-((1-methyl-1H-pyrazol-4-yl)ethynyl)-3,4-dihydroquinolin-1(2H)-yl)-2-(trifluoromethyl)pyrido[3,2-e][1,2,4]triazolo[4,3-a]pyrimidine], for which the EC50 in test [1] was found to be 6.04 nM. Also, the IC50 on human DGKα is 47.8 nM.
Take `Cc1nnc2nc(N(C)c3cccc(-c4ccc(C(F)F)cc4)c3)c3ccc(N)nc3n12` [Example 134, N5-(4′-(difluoromethyl)-[1,1′-biphenyl]-3-yl)-N5,9-dimethylpyrido[3,2-e][1,2,4]triazolo[4,3-a]pyrimidine-2,5-diamine]: in test [1], the EC50 turned out to be 8.3 nM. For the same compound, the concentration for half-maximal inhibition (IC50) at human DGKα was determined as 12.3 nM.
Take `Cc1ccc2c(N(C)c3cccc(Cl)c3)nc3nncn3c2n1` [Example 125, N-(3-chlorophenyl)-N,2-dimethylpyrido[3,2-e][1,2,4]triazolo[4,3-a]pyrimidin-5-amine]: the EC50 in test [1] turned out to be 169 nM. For the same compound, the IC50 at human DGKα is 734 nM.
